# Reference: patent publication US9676820B2, “Method for inhibiting proliferation of high LIX1L-expressing tumor cell, and tumor cell proliferation-inhibiting peptide” (National University Corporation Hamamatsu University School …, priority 2013, dated 2017)
# Experiments:
# Format in all cases: cell-based
# U937 strain = assay: MTT assay, U937 strain
# Experimental: (§1) Specifically, first, cells plated in a 96-well microplate such that the density thereof became 5×10^3 cells/well were cultured for one night in a culture solution having the same composition as those in the reference examples. Thereafter, the culture solution was exchanged with 100 μL of a culture solution of which the concentration of peptides is 0 μM to 100 μM for culturing for 72 hours. After the culturing, an MTT-containing PBS solution was added to the culture solution, and the mixture was incubated for 4 hours. Then, formazan which was generated by putting 100 μL of isopropanol (containing 34 (v/v) % of hydrochloric acid) into each of the wells was dissolved. The absorbance of each of the wells of the microplate at 570 nm was measured using a microplate reader. As controls, culturing was performed in the same manner except that no peptide was added to the strains, an MTT assay was performed thereon, and the absorbance at 570 nm was measured (untreated).
# Specifically, the cells were cultured for 72 hours similarly to Example 2 except that a peptide to be added to a cell strain was set to peptide 1, 3, or 4, or a control peptide, an MTT assay was performed thereon, and the absorbance at 570 nm was measured.
# (§2) In the method for measuring the viable cell counts, cells were cultured for 3 days similarly to Example 1 except that a 25 μM (10 μM for an HL-60 strain, a K562 strain, and a U937 strain) culture solution containing a control peptide or a peptide 1 was used, and the viable cell counts were measured. As a comparison, culturing was performed similarly to the above using a culture solution containing no peptide, and the viable cell counts were measured (untreated).
# (§3) In addition, in the method for performing an MTT assay, cells were cultured for 72 hours similarly to Example 2 except that a peptide to be added to a strain was set to a control peptide or a peptide 1 at 25 μM (10 μM for an HL-60 strain, a K562 strain, and a U937 strain), an MTT assay was performed thereon, and the absorbance at 570 nm was measured. As a comparison, culturing was performed similarly to the above using a culture solution containing no peptide, and the MTT assay was performed thereon (untreated).
# NUGC-4 strain = assay: MTT assay, NUGC-4 strain
# Experimental: as §1, with “Thereafter, the culture solution was exchanged with 100 μL of a culture solution of which the concentration of peptides is 0 μM to 100 μM for culturing for 72 hours.” left out
# as §2, §3
# Specifically, the cells were cultured for 72 hours similarly to Example 2 except that a peptide to be added to a cell was set to a peptide 1, 2, 5, or 6, MTT assays were performed thereon, and the absorbance at 570 nm was measured. As a comparison, culturing was performed similarly to the above using a culture solution containing no peptide, and the MTT assay was performed thereon (untreated).
# Specifically, the cells were cultured for 72 hours similarly to Example 2 except that peptides to be added to cell strains were set to peptides 7 to 14, MTT assays were performed thereon, and the absorbance at 570 nm was measured. […]
# Specifically, the cells were cultured for 72 hours similarly to Example 2 except that a peptide to be added to a cell strain was set to a peptide 15 or 16, an MTT assay was performed thereon, and the absorbance at 570 nm was measured. […]
# 136th tyrosine of LIX1L = molecular target: T1, 136th tyrosine of LIX1L (Homo sapiens, UniProt Q8IVB5); assay: Tyrosine phosphorylation of LIX1L by immunoprecipitation and Western blotting in 293 FLG/LIX1L cells; details: cultured 14 days with peptide
# T1 construct: expressed in transfected cells
# Experimental: First, a cell strain (293 FLG) in which only FLAG was forcibly expressed, a cell strain (293 FLG/LIX1L) in which a LIX1L protein with a FLAG tag was forcibly expressed, and a cell strain (293 FLG/LIX1L/PY136) in which a LIX1L protein with a FLAG tag for adding a peptide thereto was forcibly expressed were prepared through the same method as Reference Example 5, and were cultured and proliferated.
# Next, the 293 FLG/LIX1L/PY136 cells were cultured for 14 days in a culture solution containing a peptide 1 through the same method as that in Example 3. The 293 FLG cells and the 293 FLG/LIX1L cells were cultured for 14 days in the same manner as above using a culture solution containing no peptide 1.
# Next, the 293 FLG cells, the 293 FLG/LIX1L cells, and the 293 FLG/LIX1L/PY136 cells were respectively cultured in 10% FCS-containing DMEM culture media to which Hygromycin B at […] was added, for 14 days. Then, the cultured cells were separated into nuclear fractions and cytoplasm fractions using Nuclear/Cytosol Fractionation Kit (manufactured by BioVison, Inc.). Immunoprecipitation was performed on both the obtained fractions using an anti-FLAG antibody (manufactured by Sigma-Aldorich Co. LLC.) and an agarose-binding protein A (manufactured by Sigma-Aldorich Co. LLC.), protein separation was performed thereon through 12% SDS-PAGE, and the fractions were transferred to a film. […]
# 293 FLG/LIX1L = assay: Number of colonies formed, 293 FLG/LIX1L (Example 6); details: peptide 25 μM, cultured for 14 days
# Experimental: Specifically, 293 FLG was plated in one plate (6 wells/plate) and 293 FLG/LIX1L was plated in two plates such that the density of the cells became 1×10^4 cells/3.5 cm well. Among these, one of the plates in which 293 FLG was plated and the plate in which 293 FLG/LIX1L was plated were cultured for 14 days in a 10% vol. % FCS-containing DMEM culture medium. The remaining one of the plates in which 293 FLG/LIX1L was plated was cultured for 14 days in a 10% vol. % FCS-containing DMEM culture medium in which the peptide 1 was made to be included such that the concentration thereof became 25 μM. Each of the wells after the culturing was observed under a microscope, and the number of colonies formed was measured.
# T1 sequence (Q8IVB5 with tags, fused parts or gaps): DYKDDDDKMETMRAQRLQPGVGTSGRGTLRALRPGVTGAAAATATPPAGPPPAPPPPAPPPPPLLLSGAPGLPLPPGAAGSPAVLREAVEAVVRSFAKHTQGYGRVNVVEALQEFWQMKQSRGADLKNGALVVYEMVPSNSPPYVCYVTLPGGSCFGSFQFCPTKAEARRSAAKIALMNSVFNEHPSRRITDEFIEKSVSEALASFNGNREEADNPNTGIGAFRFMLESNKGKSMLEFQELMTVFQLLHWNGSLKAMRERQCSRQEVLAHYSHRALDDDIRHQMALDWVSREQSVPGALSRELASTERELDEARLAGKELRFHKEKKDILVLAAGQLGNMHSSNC
structure (smiles),measurement,setting,value
"CC(C)[C@H](NC(=O)[C@H](Cc1ccc(O)cc1)NC(=O)[C@H](CS)NC(=O)[C@@H](NC(=O)[C@H](Cc1ccc(O)cc1)NC(=O)[C@@H]1CCCN1C(=O)[C@@H]1CCCN1C(=O)[C@H](CO)NC(=O)[C@H](CC(N)=O)NC(=O)[C@H](CO)NC(=O)[C@@H]1CCCN1C(=O)CCCCCNC(=O)[C@H](CCCNC(=N)N)NC(=O)[C@H](CCCNC(=N)N)NC(=O)[C@H](CCCNC(=N)N)NC(=O)[C@H](CCC(N)=O)NC(=O)[C@H](CCCNC(=N)N)NC(=O)[C@H](CCCNC(=N)N)NC(=O)[C@H](CCCCN)NC(=O)[C@H](CCCCN)NC(=O)[C@H](CCCNC(=N)N)NC(=O)CNC(=O)[C@@H](N)Cc1ccc(O)cc1)C(C)C)C(N)=O [peptide 1, YGRKKRRQRRR-X-PSNSPPYVCYV-NH2]","absorbance at 570 nm (MTT assay), cell proliferation","U937 strain; peptide 0 μM to 100 μM, 72 hours",inhibited
same,cell proliferation (viable cell counts and MTT assay),"U937 strain; peptide 10 μM, 3 days / 72 hours",inhibited
same,"cell proliferation (MTT assay, absorbance at 570 nm)","NUGC-4 strain; 72 hours, peptide concentrations up to 250 μM",inhibited
same,cell proliferation (viable cell counts and MTT assay),"NUGC-4 strain; peptide 25 μM, 3 days / 72 hours",not inhibited
same,phosphorylation of the 136th tyrosine of LIX1L,136th tyrosine of LIX1L; cytoplasm fraction of 293 FLG/LIX1L/PY136 cell,significantly inhibited
same,phosphorylation of the 136th tyrosine of LIX1L,136th tyrosine of LIX1L; nuclear fraction of 293 FLG/LIX1L/PY136 cell,slightly inhibited
same,number of colonies formed,293 FLG/LIX1L,inhibited
